23 compounds from patent US8148391B2 (Cephalon, Inc., priority 2006, dated 2012) can be followed below.

Experiment [1] addresses T1, baculovirus-expressed ALK (Homo sapiens, UniProt Q9UM73).
T1 construct: host or cells: baculovirus expression system
Put plainly: ALK Kinase Assay (ELISA-type, time-resolved fluorescence). Type of experiment: biochemical. The method, boiled down:
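Wells were coated with phospholipase C-γ at 10 μg/mL in Tris-buffered saline. Adding 30 ng/ml enzyme started the reaction, which ran at 37° C for 15 minutes before Eu-N1 PT66 antibody detection. Percent inhibition versus log10 concentration gave IC50 by variable-slope fit.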

In experiment [2] the target is T2, c-Met (cytoplasmic domain) (Homo sapiens, UniProt P08581).
T2 construct: 10 ng/mL c-Met (cytoplasmic domain, Invitrogen Corporation #PV3143); purchased Invitrogen Corporation PV3143
T2 sequence (P08581 956-1390 limits assumed): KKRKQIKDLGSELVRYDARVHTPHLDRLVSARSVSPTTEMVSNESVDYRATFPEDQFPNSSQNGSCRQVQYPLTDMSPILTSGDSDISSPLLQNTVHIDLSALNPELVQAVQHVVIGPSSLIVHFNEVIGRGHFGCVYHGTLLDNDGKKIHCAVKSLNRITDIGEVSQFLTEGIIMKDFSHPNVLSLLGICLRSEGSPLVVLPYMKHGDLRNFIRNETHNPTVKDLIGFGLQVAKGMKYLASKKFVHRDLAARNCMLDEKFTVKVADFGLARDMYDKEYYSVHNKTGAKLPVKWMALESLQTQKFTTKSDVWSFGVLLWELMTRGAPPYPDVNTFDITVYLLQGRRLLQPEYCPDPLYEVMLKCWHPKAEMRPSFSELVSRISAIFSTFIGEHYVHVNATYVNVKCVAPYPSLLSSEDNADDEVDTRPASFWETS
Put plainly: c-Met Kinase Assay (same methods as for ALK, with modifications). Type of experiment: biochemical. The method, boiled down: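 Steps: coat wells with PLC-γ (10 μg/mL, Tris-buffered saline); add 10 ng/mL c-Met cytoplasmic domain to initiate; incubate 15 min, 37° C; detect phosphoproduct via Eu-N1 PT66 antibody.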

Where [3] appears, read: 1 μM ATP (Km level), read-out: ALK Activity (ALK Kinase Inhibition, IC50).
[4] abbreviates: 1 μM ATP (Km level), read-out: cMet Activity (c-Met Kinase Inhibition, IC50).
The mark [5] stands for this setting: ALK kinase inhibition, 1 μM ATP (Km level), read-out: ALK Activity.
The mark [6] stands for this setting: c-Met kinase inhibition, 1 μM ATP (Km level), read-out: cMet Activity.
Setting [7] is: 1 μM ATP (Km level), 30 ng/ml ALK, 37° C., 15 minutes, read-out: ALK Activity (ALK kinase inhibition, IC50 class).
[8] abbreviates: 1 μM ATP (Km level), 10 ng/mL c-Met, read-out: cMet Activity (c-Met kinase inhibition, IC50 class).
The mark [9] stands for this setting: ALK kinase inhibition, 1 μM ATP, read-out: ALK Activity.
Where [10] appears, read: c-Met kinase inhibition, 1 μM ATP, read-out: cMet Activity.

pIC50: −log10 of the molar value. Where two headings read alike, the source gives them in different places.

T1 sequence (Q9UM73 19-1620): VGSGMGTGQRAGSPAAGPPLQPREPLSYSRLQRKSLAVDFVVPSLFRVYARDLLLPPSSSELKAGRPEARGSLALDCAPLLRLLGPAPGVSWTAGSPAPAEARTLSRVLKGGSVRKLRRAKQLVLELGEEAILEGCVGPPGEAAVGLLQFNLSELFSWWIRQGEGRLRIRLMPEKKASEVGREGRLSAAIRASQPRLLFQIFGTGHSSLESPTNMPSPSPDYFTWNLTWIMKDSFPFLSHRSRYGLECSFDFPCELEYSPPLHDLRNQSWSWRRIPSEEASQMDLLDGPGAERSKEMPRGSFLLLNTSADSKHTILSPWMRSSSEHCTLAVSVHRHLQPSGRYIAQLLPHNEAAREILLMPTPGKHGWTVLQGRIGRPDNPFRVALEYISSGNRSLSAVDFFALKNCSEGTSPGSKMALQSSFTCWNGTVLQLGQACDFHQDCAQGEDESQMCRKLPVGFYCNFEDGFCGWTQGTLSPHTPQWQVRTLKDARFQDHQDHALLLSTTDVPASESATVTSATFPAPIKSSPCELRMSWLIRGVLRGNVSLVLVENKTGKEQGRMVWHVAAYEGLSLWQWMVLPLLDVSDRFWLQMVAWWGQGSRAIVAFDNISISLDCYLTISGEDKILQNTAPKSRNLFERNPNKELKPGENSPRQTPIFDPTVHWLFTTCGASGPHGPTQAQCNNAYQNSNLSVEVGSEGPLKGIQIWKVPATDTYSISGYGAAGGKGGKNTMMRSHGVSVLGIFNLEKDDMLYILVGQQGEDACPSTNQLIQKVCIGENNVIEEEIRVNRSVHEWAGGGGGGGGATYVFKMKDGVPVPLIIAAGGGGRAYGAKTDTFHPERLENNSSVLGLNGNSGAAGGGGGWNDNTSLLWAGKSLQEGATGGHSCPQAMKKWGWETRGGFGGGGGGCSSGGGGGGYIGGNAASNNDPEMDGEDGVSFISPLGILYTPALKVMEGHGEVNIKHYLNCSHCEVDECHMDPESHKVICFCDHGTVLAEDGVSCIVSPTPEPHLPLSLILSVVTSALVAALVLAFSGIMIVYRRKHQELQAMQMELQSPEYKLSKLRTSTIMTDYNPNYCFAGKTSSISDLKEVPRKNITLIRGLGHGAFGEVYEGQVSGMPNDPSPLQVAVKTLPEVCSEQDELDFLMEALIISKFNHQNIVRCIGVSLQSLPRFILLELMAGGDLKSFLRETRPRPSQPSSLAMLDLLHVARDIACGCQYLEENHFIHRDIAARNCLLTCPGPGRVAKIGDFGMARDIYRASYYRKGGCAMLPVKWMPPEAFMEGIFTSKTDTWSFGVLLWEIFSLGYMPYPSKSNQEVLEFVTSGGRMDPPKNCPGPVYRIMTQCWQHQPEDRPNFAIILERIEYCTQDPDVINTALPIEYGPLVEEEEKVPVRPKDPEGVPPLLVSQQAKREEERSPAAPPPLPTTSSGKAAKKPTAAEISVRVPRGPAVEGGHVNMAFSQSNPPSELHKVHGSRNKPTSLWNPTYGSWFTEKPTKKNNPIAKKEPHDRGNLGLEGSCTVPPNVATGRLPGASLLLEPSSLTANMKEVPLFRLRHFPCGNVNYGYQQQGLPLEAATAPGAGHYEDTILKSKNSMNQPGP

Turning to `COCC(COC)N1CCc2cc(Nc3ncc(Cl)c(NC4(CC(N)=O)CCCCC4)n3)c(OC)cc2CC1` [Example 848, 2-(1-{5-Chloro-2-[8-methoxy-3-(2-methoxy-1-methoxymethyl-ethyl)-2,3,4,5-tetrahydro-1H-benzo[d]azepin-7-ylamino]-pyrimidin-4-ylamino}-cyclohexyl)-acetamide], the values for the pIC50 in experiment [1] (setting [3]) and in experiment [2] (setting [4]) were 6.00 to 7.00 and below 5.00, respectively.

`CNS(=O)(=O)c1ccccc1Nc1nc(Nc2ccc3c(c2)C2CCC3CN(CC#N)C2)ncc1Cl` (stereo not shown) [Example 275, 2-[5-Chloro-2-(10-cyanomethyl-10-aza-tricyclo[6.3.2.0*2,7*]trideca-2,4,6-trien-4-ylamino)-pyrimidin-4-ylamino]-N-methyl-benzenesulfonamide]: the pIC50 in experiment [1] (setting [5]) and in experiment [2] (setting [6]) was above 7.00 throughout.

Take `CCN1CCc2ccc(Nc3ncc(Cl)c(NCCCC(=O)NC)n3)cc2CC1` [Example 212, 4-[5-Chloro-2-(3-ethyl-2,3,4,5-tetrahydro-1H-benzo[d]azepin-7-ylamino)-pyrimidin-4-ylamino]-N-methyl-butyramide]: the pIC50 in experiment [1] (setting [5]) and in experiment [2] (setting [6]) was 5.00 to 6.00 each time.

As to `COc1cc2c(cc1Nc1ncc(Cl)c(Nc3ccc(N4CCOCC4)cc3C)n1)CCN(CC(=O)N(C)C)CC2` [Example 801, 2-{7-[5-Chloro-4-(2-methyl-4-morpholin-4-yl-phenylamino)-pyrimidin-2-ylamino]-8-methoxy-1,2,4,5-tetrahydro-benzo[d]azepin-3-yl}-N,N-dimethyl-acetamide], the pIC50 in experiment [1] (setting [3]) was above 7.00; in experiment [2] (setting [4]), below 5.00.

In the case of `CN1C(=O)OCCc2cc(Nc3ncc(Cl)c(Oc4c(F)cccc4OC4CCOC4)n3)ccc21` (stereo not shown) [Example 1307, 2-{5-Chloro-4-[2-fluoro-6-(tetrahydro-furan-3-yloxy)-phenoxy]-pyrimidin-2-ylamino}-5-methyl-8,9-dihydro-5H-7-oxa-5-aza-benzocyclohepten-6-one], the pIC50 was 6.00 to 7.00 in experiment [1] (setting [7]) and 5.00 to 6.00 in experiment [2] (setting [8]).

Consider `CS(=O)(=O)c1cccc(F)c1Nc1nc(Nc2ccc3c(c2)NC(=O)CCC3)ncc1Cl` [Example 1261, 8-[5-Chloro-4-(2-fluoro-6-methanesulfonyl-phenylamino)-pyrimidin-2-ylamino]-1,3,4,5-tetrahydro-1-benzazepin-2-one], for which the pIC50 is 5.00 to 6.00 in experiment [1] (setting [7]) and below 5.00 in experiment [2] (setting [8]).

As to `NC(=O)C1C2C=CC(C2)C1Nc1nc(Nc2ccc3c(c2)CNC(=O)NC3)ncc1Cl` (stereo not drawn) [Example 228, (2-exo,3-exo)-3-[5-Chloro-2-(3-oxo-2,3,4,5-tetrahydro-1H-benzo[e][1,3]diazepin-7-ylamino)-pyrimidin-4-ylamino]-bicyclo[2.2.1]hept-5-ene-2-carboxylic acid amide], the pIC50 was above 7.00 in experiment [1] (setting [5]) and 6.00 to 7.00 in experiment [2] (setting [6]).

As for `COc1cccc(C(=O)NCC#N)c1Nc1nc(Nc2ccc3c(c2)CCCC(=O)N3C)ncc1Cl` [Example 1065, 2-[5-Chloro-2-(1-methyl-2-oxo-2,3,4,5-tetrahydro-1H-benzo[b]azepin-7-ylamino)-pyrimidin-4-ylamino]-N-cyanomethyl-3-methoxy-benzamide], the pIC50 in experiment [1] (setting [7]) was below 5.00; in experiment [2] (setting [8]), 6.00 to 7.00.

Turning to `CCN1CCc2ccc(Nc3ncc(C(F)(F)F)c(Nc4ccccc4C(=O)NC)n3)cc2CC1` [Example 195, 2-[2-(3-Ethyl-2,3,4,5-tetrahydro-1H-benzo[d]azepin-7-ylamino)-5-trifluoromethyl-pyrimidin-4-ylamino]-N-methyl-benzamide], the pIC50 in experiment [1] (setting [5]) and in experiment [2] (setting [6]) was above 7.00 in each case.

Turning to `CNC(=O)c1cc(F)cc(Cl)c1Nc1nc(Nc2ccc3c(c2)CCOC(=O)N3C)ncc1Cl` [Example 1758, 3-Chloro-2-[5-chloro-2-(5-methyl-6-oxo-5,6,8,9-tetrahydro-7-oxa-5-aza-benzocyclohepten-2-ylamino)-pyrimidin-4-ylamino]-5-fluoro-N-methyl-benzamide], the pIC50 in experiment [1] (setting [9]) was 5.00 to 6.00; in experiment [2] (setting [10]), above 7.00.

For `COCCN1CCc2ccc(Nc3ncc(Cl)c(N[C@@H]4CCCC[C@H]4N)n3)cc2CC1` [Example 451, N*4*-((1R,2R)-2-Amino-cyclohexyl)-5-chloro-N*2*-[3-(2-methoxy-ethyl)-2,3,4,5-tetrahydro-1H-benzo[d]azepin-7-yl]-pyrimidine-2,4-diamine], the results for the pIC50 in experiment [1] (setting [5]) and in experiment [2] (setting [6]) were 6.00 to 7.00 and 5.00 to 6.00, respectively.

In the case of `CNC(=O)c1ccccc1Nc1nc(Nc2ccc3c(c2)CCCCN3C)ncc1Cl` [Example 103, 2-[5-Chloro-2-(1-methyl-2,3,4,5-tetrahydro-1H-benzo[b]azepin-7-ylamino)-pyrimidin-4-ylamino]-N-methyl-benzamide], the pIC50 in experiment [1] (setting [5]) and in experiment [2] (setting [6]) was above 7.00 each time.

`CNC(=O)c1ccccc1Nc1nc(Nc2cc3c(cc2OC)CCOC(=O)N3C)ncc1Br` [Example 1512, 2-[5-Bromo-2-(2-methoxy-5-methyl-6-oxo-5,6,8,9-tetrahydro-7-oxa-5-aza-benzocyclohepten-3-ylamino)-pyrimidin-4-ylamino]-N-methyl-benzamide]: the pIC50 was above 7.00 in experiment [1] (setting [9]) and 5.00 to 6.00 in experiment [2] (setting [10]).

Turning to `O=C1CCCc2ccc(Nc3ncc(Cl)c(Nc4ccccc4S(=O)(=O)N4CCC(O)C4)n3)cc2N1` (stereo not shown) [Example 1493, 8-{5-Chloro-4-[2-(3-hydroxy-pyrrolidine-1-sulfonyl)-phenylamino]-pyrimidin-2-ylamino}-1,3,4,5-tetrahydro-benzo[b]azepin-2-one], the pIC50 in experiment [1] (setting [9]) and in experiment [2] (setting [10]) was above 7.00 in each case.

Take `COc1c(Nc2ncc(Cl)c(N[C@H]3[C@@H](C(N)=O)[C@@H]4C=C[C@H]3C4)n2)ccc2c1CC(N1CCOCC1)CCC2` (mixture of isomers) [Example 1204, (1S,2S,3R,4R)-3-[5-Chloro-2-(1-methoxy-8-morpholin-4-yl-6,7,8,9-tetrahydro-5H-benzocyclohepten-2-ylamino)-pyrimidin-4-ylamino]-bicyclo[2.2.1]hept-5-ene-2-carboxylic acid amide]: the pIC50 is above 7.00 in experiment [1] (setting [7]) and below 5.00 in experiment [2] (cMet Activity (c-Met kinase inhibition, IC50 class), 1 μM ATP (Km level), 10 ng/mL c-Met).

Take `CCN1C(=O)[C@H](N(C)C)CCc2c1ccc(Nc1ncc(Cl)c(N[C@H]3[C@@H](C(N)=O)[C@@H]4C=C[C@H]3C4)n1)c2OC` (single isomer, unassigned) [Example 1346]: the pIC50 in experiment [1] (setting [7]) was above 7.00; in experiment [2] (setting [8]) it was 5.00 to 6.00.

For `COc1cc2c(cc1Nc1ncc(Cl)c(Nc3ccccc3-n3cccn3)n1)CCC(NCC(F)F)CC2` (stereo not shown) [Example 1059, 5-Chloro-N*2*-[7-(2,2-difluoro-ethylamino)-3-methoxy-6,7,8,9-tetrahydro-5H-benzocyclohepten-2-yl]-N*4*-(2-pyrazol-1-yl-phenyl)-pyrimidine-2,4-diamine], the pIC50 in experiment [1] (setting [7]) was above 7.00; in experiment [2] (setting [8]) it was below 5.00.

For `Cc1cnc(-c2sccc2Nc2nc(Nc3ccc4c(c3)CCOC(=O)N4C)ncc2Cl)o1` [Example 1790, 2-{5-Chloro-4-[2-(5-methyl-oxazol-2-yl)-thiophen-3-ylamino]-pyrimidin-2-ylamino}-5-methyl-8,9-dihydro-5H-7-oxa-5-aza-benzocyclohepten-6-one], the pIC50 in experiment [1] (setting [9]) and in experiment [2] (setting [10]) was 6.00 to 7.00 in each case.

Turning to `CCN1C(=O)[C@@H](N(C)C)CCc2c1ccc(Nc1ncc(Cl)c(N[C@H]3[C@@H](C(N)=O)[C@@H]4C=C[C@H]3C4)n1)c2OC` (single isomer, unassigned) [Example 1347], the pIC50 is above 7.00 in experiment [1] (setting [7]) and 5.00 to 6.00 in experiment [2] (setting [8]).

In the case of `COc1cc2c(cc1Nc1ncc(Cl)c(Nc3ccccc3S(=O)(=O)N(C)C)n1)CCN(CCN1CCOCC1)C(=O)C2` [Example 1195, 2-{5-Chloro-2-[8-methoxy-3-(2-morpholin-4-yl-ethyl)-2-oxo-2,3,4,5-tetrahydro-1H-benzo[d]azepin-7-ylamino]-pyrimidin-4-ylamino}-N,N-dimethyl-benzenesulfonamide], the pIC50 is above 7.00 in experiment [1] (setting [7]) and 5.00 to 6.00 in experiment [2] (setting [8]).

`C#CCNC(=O)c1cccc(F)c1Nc1nc(Nc2ccc3c(c2)N(C(C)C)CCCO3)ncc1Cl` [Example 1733, 2-[5-Chloro-2-(9-isopropyl-6,7,8,9-tetrahydro-5-oxa-9-aza-benzocyclohepten-2-ylamino)-pyrimidin-4-ylamino]-3-fluoro-N-prop-2-ynyl-benzamide]: the pIC50 in experiment [1] (setting [9]) was above 7.00; in experiment [2] (setting [10]) it was 6.00 to 7.00.

Regarding `O=C1CCCc2ccc(Nc3ncc(Cl)c(Nc4c(F)cccc4OCCCOCc4ccccc4)n3)cc2N1` [Example 1283, 8-{4-[2-(3-Benzyloxy-propoxy)-6-fluoro-phenylamino]-5-chloro-pyrimidin-2-ylamino}-1,3,4,5-tetrahydro-1-benzazepin-2-one], the pIC50 in experiment [1] (setting [7]) was 5.00 to 6.00; in experiment [2] (setting [8]), below 5.00.

In the case of `COc1cc2c(cc1Nc1ncc(Cl)c(Nc3ccccc3S(=O)(=O)N3CCOCC3)n1)CCN(CC(=O)N(C)C)CC2` [Example 836, 2-(7-{5-Chloro-4-[2-(morpholine-4-sulfonyl)-phenylamino]-pyrimidin-2-ylamino}-8-methoxy-1,2,4,5-tetrahydro-benzo[d]azepin-3-yl)-N,N-dimethyl-acetamide], the pIC50 in experiment [1] (setting [3]) was above 7.00; in experiment [2] (setting [4]) it was below 5.00.
